Ends that are not written are not given here.
Test system: PTEN-CaP8 tumors
Experiment: PTEN-CaP8 mice tumor model, tumor growth
Assay type: in vivo, mouse
Conditions: C57BL/6 mice, s.c. PTEN-CaP8 tumors
Procedure: FIGS. 6A-J. The small S249/T252 phosphorylation-mimicking polypeptide of RB blocks irradiation-induced PD-L1 expression and inhibits cancer immune evasion. (A, B) PC-3 cells were infected with lentivirus expressing control shRNA or p65-specific or shRNA. 24 hours after puromycin selection, cells were treated with or without gamma irradiation (IR) (12 Gy). 48 hours after IR treatment, cells were harvested for western blotting analysis (A) and RT-qPCR analysis (B). All data were shown as mean values±SD (n=3). * P<0.05, ** P<0.01, *** P<0.001. (C, D) PC-3 cells were treated with without gamma irradiation (12 Gy). Cells were harvested at the indicated time point for western blotting analysis (C) and RT-qPCR analysis (D). All data were shown as mean values±SD (n=3). * P<0.05, ** P<0.01, *** P<0.001. (E) Western blot analysis of WCL and co-IP samples in PC-3 cells 48 hours after treated with or without gamma irradiation (12 Gy). […] (J) The absolute number of CD45^+CD8^+ T cells, CD45^+CD4^+ T cells, and CD11b^+Gr1^+ myeloid cells of implanted PTEN-CaP8 in tumors treated with indicated agents was analyzed by FACS. […]
6-week-old C57BL/6 mice (Jackson Lab) were used for animal experiments. […] The volume of xenografts was measured every other day and calculated using the formula L×W2×0.5. […]

## RL-S249D/T252D: S249/T252 phospho-mimicking R-Linker (RL) peptide: fragment of RB-N containing 21 amino acids surrounding S249/T252, expressed SFB-tagged or by lentivirus (NGDPRDPRRGQNRSARIAKQL; also: expressed SFB-tagged (tag left off))
12 Gy
  tumor growth, agent combined with gamma irradiation: tumors regressed
anti-PD-L1 200 μg or lentiviral peptide expression
  tumor growth, agent without irradiation: markedly inhibited

From patent publication US20210401931A1, “METHODS AND MATERIALS FOR TREATING CANCER” (Mayo Foundation for Medical Education and Research, priority 2018, published 2021)
